Bridge positions count the residues as written; N and C are the ends. Square brackets hold non-standard residues; d marks the D form. Peptide text beside a SMILES is read from it. R8 = C=CCCCCCC[C@@](C)(N)C(=O)O; Cha = N[C@@H](CC1CCCCC1)C(=O)O; Cba = N[C@@H](CC1CCC1)C(=O)O; S5 = C=CCCC[C@](C)(N)C(=O)O; Nle = CCCC[C@H](N)C(=O)O; Ac3c = NC1(C(=O)O)CC1
Key:
SJSA-1 cells = experiment: Cell lysis by peptidomimetic macrocycles (LDH release); format: cell-based; settings: SJSA-1, 1 h
Method: SJSA-1 cells were plated out one day in advance in clear flat-bottom plates (Costar, catalog number 353072) at 7500 cells/well with 100 ul/well of growth media, leaving row H columns 10-12 empty for media alone. On the day of the assay, media was exchanged with RPMI 1% FBS media, 90 uL of media per well.
10 mM stock solutions of the peptidomimetic macrocycles were prepared in 100% DMSO. Peptidomimetic macrocycles were then diluted serially in 100% DMSO, and then further diluted 20-fold in sterile water to prepare working stock solutions in 5% DMSO/water of each peptidomimetic macrocycle at concentrations ranging from 500 μM to 62.5 μM.
10 μL of each compound was added to the 90 uL of SJSA-1 cells to yield final concentrations of 50 μM to 6.25 μM in 0.5% DMSO-containing media. The negative control (non-lytic) sample was 0.5% DMSO alone and positive control (lytic) samples include 10 μM Melittin and 1% Triton X-100.
Cell plates were incubated for 1 hour at 37° C. After the 1 hour incubation, the morphology of the cells is examined by microscope and then the plates were centrifuged at 1200 rpm for 5 minutes at room temperature. 40 μL of supernatant for each peptidomimetic macrocycle and control sample is transferred to clear assay plates. LDH release is measured using the LDH cytotoxicity assay kit from Caymen, catalog #1000882.

Caspase 3 = Caspase 3 detection assay in SJSA1 cells; format: cell-based; settings: SJSA1, 48 h, Caspase 3 activation over DMSO-treated cells

Compound | 6.25 μM % Lysed cells (1 h LDH) (SJSA-1 cells) [%] | 25 μM % Lysed cells (1 h LDH) (SJSA-1 cells) [%] | 50 μM % Lysed cells (1 h LDH) (SJSA-1 cells) [%] | caspase 0.3 μM (Caspase 3) | caspase 3 μM (Caspase 3) | caspase 10 μM (Caspase 3) | caspase 30 μM (Caspase 3)
CC(=O)N[C@@H](CC(C)C)C(=O)N[C@H](C(=O)N[C@@H](Cc1ccccc1)C(=O)N[C@]1(C)CCCCCCC=CCCC[C@@](C)(C(=O)N[C@@H](C)C(=O)N[C@@H](Cc2c[nH]cn2)C(=O)N[C@@H](Cc2ccccc2)C(=O)N[C@@H](C)C(N)=O)NC(=O)[C@H](CC(C)C)NC(=O)[C@H](CCC(N)=O)NC(=O)[C@H](C(C)C)NC(=O)[C@H](Cc2c[nH]c3ccccc23)NC(=O)[C@H](Cc2c[nH]cn2)NC(=O)[C@H](C)NC1=O)[C@@H](C)O [compound 190] (Ac-LTF[R8]AHWVQL[S5]AHFA-NH2; staple 4-11) | −1 | 0 | 1 |  |  |  | 
CC(=O)N[C@@H](Cc1ccccc1)C(=O)N[C@]1(C)CCCCCCC=CCCC[C@@](C)(C(=O)N[C@@H](C)C(=O)N[C@@H](C)C(=O)N[C@@H](CC(C)C)C(N)=O)NC(=O)[C@H](CC(C)C)NC(=O)C2(CC2)NC(=O)[C@H](CCC(=O)O)NC(=O)[C@H](Cc2c[nH]c3ccccc23)NC(=O)[C@H](Cc2ccc(O)cc2)NC(=O)[C@H](C)NC1=O [compound 15] (Ac-F[R8]AYWE[Ac3c]L[S5]AAL-NH2; staple 2-9) | 1 | 2 | 5 |  |  |  | 
CC(=O)N[C@@H](Cc1ccccc1)C(=O)N[C@]1(C)CCCCCCC=CCCC[C@@](C)(C(=O)N[C@@H](Cc2c[nH]cn2)C(=O)N[C@@H](CCCNC(=N)N)C(=O)N[C@@H](Cc2ccccc2)C(=O)N[C@@H](CC2CCCCC2)C(N)=O)NC(=O)[C@H](CC(C)C)NC(=O)[C@H](CCC(N)=O)NC(=O)[C@H](Cc2c[nH]cn2)NC(=O)[C@H](Cc2c[nH]c3ccccc23)NC(=O)[C@H](Cc2c[nH]cn2)NC(=O)[C@H](Cc2c[nH]cn2)NC1=O [compound 55] (Ac-F[R8]HHWHQL[S5]HRF[Cha]-NH2; staple 2-9) | 1 | 9 | 13 |  |  |  | 
CC(=O)N[C@@H](CCC(=O)O)C(=O)N[C@H](C(=O)N[C@@H](Cc1ccccc1)C(=O)N[C@]1(C)CCCCCCC=CCCC[C@@](C)(C(=O)N[C@@H](CO)C(=O)N[C@@H](CC(C)C)C(=O)N[C@@H](C)C(N)=O)NC(=O)[C@H](CC(C)C)NC(=O)[C@H](CCC(N)=O)NC(=O)[C@H](C)NC(=O)[C@H](Cc2c[nH]c3ccccc23)NC(=O)[C@H](Cc2ccc(O)cc2)NC(=O)[C@H](C(C)C)NC1=O)[C@@H](C)O [compound 127] (Ac-ETF[R8]VYWAQL[S5]SLA-NH2; staple 4-11) |  |  |  | 1 | 1 | 4 | 13
CCCC[C@H](NC(=O)[C@H](C)NC(=O)[C@H](C)NC(=O)[C@]1(C)CCCC=CCCCCCC[C@@](C)(NC(=O)[C@H](Cc2ccccc2)NC(=O)[C@@H](NC(=O)[C@H](CC(C)C)NC(C)=O)[C@@H](C)O)C(=O)N[C@@H](CCC(=O)O)C(=O)N[C@@H](Cc2ccc(O)cc2)C(=O)N[C@@H](Cc2c[nH]c3ccccc23)C(=O)N[C@@H](C)C(=O)N[C@@H](CCC(N)=O)C(=O)N[C@@H](CC2CCC2)C(=O)N1)C(=O)N[C@@H](C)C(N)=O [compound 238] (Ac-LTF[R8]EYWAQ[Cba][S5]AA[Nle]A-NH2; staple 4-11) |  |  |  | 1 | 2 | 4 | 21
CC(=O)N[C@@H](CC(C)C)C(=O)N[C@H](C(=O)N[C@@H](Cc1ccccc1)C(=O)N[C@]1(C)CCCCCCC=CCCC[C@@](C)(C(=O)N[C@@H](CO)C(=O)N[C@@H](C)C(=O)N[C@@H](Cc2ccccc2)C(=O)N[C@@H](C)C(N)=O)NC(=O)[C@H](CC2CCC2)NC(=O)[C@H](CCC(N)=O)NC(=O)[C@H](C)NC(=O)[C@H](Cc2c[nH]c3ccccc23)NC(=O)[C@H](Cc2ccc(O)cc2)NC(=O)[C@H](CCC(=O)O)NC1=O)[C@@H](C)O [compound 242] (Ac-LTF[R8]EYWAQ[Cba][S5]SAFA-NH2; staple 4-11) |  |  |  | 1 | 4 | 5 | 18
